Experimental data: US20080051393A1, “Novel cannabinoids and methods of use” (Eastern Virginia Medical School, priority 2006, published 2008)
“Also recorded” adds a separate entry of the source.

How the values were obtained:
[1] = test system: IOP in a rat glaucoma model; experiment: IOP after topical application in chronic rat glaucoma model; assay type: in vivo, Sprague-Dawley rats; details: for Effect on IOP compared to baseline or vehicle: all concentrations tested
From the text: (§1) Rat Glaucoma Model. Compared to acute studies, a chronic rat model of glaucoma was generated. The rats were made glaucomatous by ligating three vortex veins (Hosseini, A. et al. (2006) Chronic topical administration of WIN-55-212-2 maintinas a reduction in IOP in a rat glaucoma model without adverse effects. Exp. Eye Res. 82(5):753-9). More specifically, ocular hypertension was induced in Sprague-Dawley rats by ligating 3 of 4 episcleral veins of the right eye using 9.0 nylon sutures under anesthesia with 3 mg/Kg acepromazine and 20 mg/Kg ketamine. Within 6 wk, IOP increased by at least 5 mm Hg in the operated eye. This intervention produced at least a 30% increase in IOP in the operated eye and lasted for up to 60 weeks. During this time, a 30% loss of retinal function was documented by ERG. […] Thus, the model accurately mimics the progressive damage that occurs in patients with glaucoma.
(§2) Measurements of Intraocular Pressure. IOP elevation was measured under mild sedation using a calibrated Goldmann tonometer modified for rats. Three determinations were averaged for each eye. To account for diurnal variation, all IOP's were measured between 11 am and 1 pm during the daily trough period.
Therapeutic Regimen. For IOP Measurements (Topical application) Baseline IOP, heart rate, blood pressure and normal ocular anatomy were documented prior to drug administration. The drugs WIN 55-212-2 (0.1%, 1.0%), O-1812 (0.01%, 0.1%, 1.0%), O-2545 (0.1%, 1.0%) were all dissolved in Tocrisolve™ (vehicle). IOP, heart rate, and blood pressure were measured prior to and after 30, 60 and 120 min after topical administration. Contralateral eyes served as vehicle treated controls.

[2] = test system: IOP in a rat glaucoma model; experiment: Combination therapy: IOP in a rat glaucoma model; assay type: in vivo, Sprague Dawley rats; details: 1.0% topical alone, 120 min
From the text: as §1, §2
Combination Therapy. Since cannabinoids and timolol, which are both known to reduce IOP, have different mechanisms of action, there is potential for a synergistic effect. The combination of timolol and a synthetic cannabinoid (WIN55 212-2, O-1812, or O-2545) to reduce IOP in a chronic rat model of ocular hypertension was examined. Surgical ligation of three of the four episcleral veins in one eye of Sprague Dawley rats caused a long lasting (>44 week) increase in IOP. IOP was measured by Goldmann tonometry at baseline (−30), 0, 30, 60 and 120 min, as was heart rate and blood pressure. For combination therapy, after baseline IOP measurement, timolol 0.5% was applied topically followed 30 min later by WIN55 212-2 1.0%, O-1812 1.0%, or O-2545 1.0%. In another experiment, O-1812 1.0% and O-2545 1.0% were administered simultaneously. An analysis for ocular irritation was performed by slit lamp examination (SLE) at baseline and 150 min.

optic nerve = experiment: Rat NMDA model: optic nerve histology; assay type: in vivo
Method: (§3) Rat NMDA Model. To mimic glaucomatous damage to the retina without a potentially confounding effect on IOP, retinal damage was induced by NMDA in a rat model. Following baseline measurements, e.g. IOP, ERG, slit lamp, fundus photography, heart rate and blood pressure, N-methyl D-aspartate (NMDA, 2 μl of 10 mM) was injected intravitreally to induce RGC damage. […] For positive identification, a hand scanner was used each time the rat was examined. This was necessary since the examiners will be masked as to treatment group. Treatment groups consisted of either NMDA only (control), O-1812 (0.1%) or O-2545 (0.1%), O-1812 (0.1%)+SR-141716 (2 mM), O-2545 (0.1%)+SR-141716 (2 mM), O-1812 (0.1%)+SR-144258 (2 mM) and O-2545 (0.1%)+SR-144258 (2 mM). All experiments were conducted in accordance with the policies of the Institutional Animal Care and Use Committee and the ARVO policy on use of animals in experiments. A minimum of two baseline ERG measurements was recorded 1 wk prior, 1 wk and 2 wk post injection. At the end of each experiment, rats were sacrificed and their eyes were preserved for histological assessment of effects on the retina and optic nerve.
Histology. For retinal flat mounts, retinas were dissected from formalin fixed whole eyes, mounted on superfrost glass slides, stained with hematoxylin and eosin and digitally photographed. […]

[3] = test system: retinal ganglionic cells (RGC); experiment: Rat NMDA model: retinal flat mounts, RGC count; assay type: in vivo; details: NMDA model, retinal flat mounts
Method: as §3
Histology. For retinal flat mounts, retinas were dissected from formalin fixed whole eyes, mounted on superfrost glass slides, stained with hematoxylin and eosin and digitally photographed. For analysis, the retina was divided into four quadrants. A minimum of five 50 μm^2 sections per quadrant were used to count cell number. The cell sections were selected to be equidistant from the optic cup for all quadrants. For optic nerve experiments, the optic nerve was dissected at the margin of the optic disk and embedded in cryo media. Sections of 10 μm thickness were cut and mounted on superfrost glass slides and stained with hematoxylin and eosin. The slides were digitally photographed.

Rat NMDA Model = experiment: Rat NMDA model: electroretinogram a-wave; assay type: in vivo; details: for Effect of CB1 antagonist SR-141716 on the action of the drug (ERG a-wave): drug 0.1% + SR-141716 2 mM
Method: as §3
Electroretinogram. In normal retina, full field electroretinography (ERG) stimulates both rods (a-waves) and cones (b-waves). A decrease in their amplitudes indicates retinal functional damage. Scotopic ERG changes were measured in rats that were dark-adapted for at least 4 hours. Eyes were then dilated with 1% atropine after which 0.5% proparacaine and methylcellulose gel (GPS 2.5%) was applied topically. Custom made AgCl electrodes were placed on the apex of the cornea. Stimuli consisted of 10-μsec flashes of unattenuated white light generated by a Ganzfeld bowl photo stimulator. Data from each eye were recorded separately with a driver amplifier and acquired digitally via DASYLab. The contralateral normal eye served as an age matched negative control, e.g. response in a normal, undamaged eye. Differences in amplitude of the a- and b-waves between the operated eye and the contralateral eye were calculated and analyzed by ANOVA and t-test.

[4] = Ocular toxicity by slit lamp, MacDonald-Shadduck scoring; assay type: in vivo, rats; details: topical
Method: Slit Lamp Biomicroscopy/Digital Photography. Ocular toxicity was measured using slit lamp examination and performed using a modified MacDonald-Shadduck semi-quantitative scale for ocular irritation (McDonald, T. O. and Shadduck, J. A. (1987) Eye irriation. In Dermatotoxicology. 3rd Ed. Mazulli and Maibach. Pp 641-696. Washington, DC: Hemisphere). All eyes were examined by a slit lamp fitted with a color digital camera for digital photography of conjunctiva, cornea, and anterior camber. Images were stored and analyzed using a digital video system (Lombart Instruments DVS System). At baseline and following drug administration, eyes were examined for conjunctival congestion, conjunctival discharge, corneal edema, aqueous flare, fibrin, and iris congestion (Samudre, S. S. et al. (2004) Comparison of Topical Steroids for Acute Anterior Uveitis. J. Ocul. Pharmacol. Ther. 20 (6):533-547). Knowledgeable, masked observers rated each factor on a semi-quantitative four point scale where zero was coded normal, 1=minimal, 2=moderate and 3=severe involvement. Results were compared to the normal baseline evaluation performed before treatment and also with the untreated contralateral eye.

[5] = test system: peripheral retinal ganglion cell; details: cited from earlier work
[6] = Corneal thickness by in vivo confocal microscopy; design: species or system rats; details: 1.0% treated eye (OD) vs contralateral control (OS)
Method: Confocal Microscopy. Repeated noninvasive in vivo visualization of cornea and anterior segments for the presence, location and number of inflammatory cells, as well as fibrin, hyper-refractile bodies and changes in epithelial, stromal and endothelial cell morphology was performed by confocal microscopy. Prior to applanation, rats were sedated and 0.5% proparacaine was applied topically. Data was analyzed using the Metamorph imaging system (Universal Imaging, Downingtown, Pa.).

Row | Compound | IOP after 60 min (% of Baseline) ([1]; 0.01% topical, 60 min) | IOP after 60 min (% of Baseline) ([1]; 0.10% topical, 60 min) | IOP after 60 min (% of Baseline) ([1]; 1.0% topical, 60 min) | Effect on IOP compared to baseline or vehicle ([1]; topical) | IOP at 120 min (% Baseline) [2] [% Baseline] | Protection of optic nerve against NMDA induced damage (optic nerve) | Preservation of the number of RGCs [3] | Effect of CB1 antagonist SR-141716 on the action of the drug (ERG a-wave) (Rat NMDA Model) | Ocular toxicity / signs of ocular inflammation [4] | Time for which significant IOP reduction was maintained ([1]; 1.0% topical) | Effect on IOP at 30 min ([1]; 1.0% topical) | further results
1 | C[C@H](CO)NC(=O)CCC/C=C\C/C=C\C/C=C\C/C=C\C(C)(C)CCCCC#N [Compound O-1812] | 81.9 ± 2.7 % of Baseline | 78.3 ± 3.1 % of Baseline | 61.9 ± 3.9 % of Baseline | effective; also recorded: significantly reduced IOP | 62.0 ± 0.5 | prevented much of the NMDA induced damage | preserved the number of RGCs | effectively blocked | non-toxic | – | – | Effect on IOP ([1]; 0.01% topical): significantly reduced IOP; Time for which the IOP decrease was maintained ([1]; 0.01% topical): ≤ 60 min; Relative efficacy in IOP reduction ([1]; 1.0% topical): most efficacious; Onset of IOP lowering action ([1]; topical): most rapid onset; RGCs preserved [3]: up to 83%; Retinal function, A-wave ERG (percentage of the contralateral normal eye) (Rat NMDA Model; NMDA intravitreal, drug 0.1%): more effectively preserved retinal function; Effect of CB2 antagonist SR-144258 on the action of the drug (ERG a-wave) (Rat NMDA Model; drug 0.1% + SR-144258 2 mM): no effect
2 | N=C(N)NN [aminoguanidine] | – | – | – | – | – | – | – | – | – | – | – | Less peripheral retinal ganglion cell loss compared to untreated rats [5]: 26%
3 | CC1=CC[C@@H]2[C@@H](C1)c1c(O)cc(C(C)(C)CCCCn3ccnc3)cc1OC2(C)C [Compound O-2545] | – | 77.8 ± 2.8 % of Baseline | 76.4 ± 2.8 % of Baseline | – | 65.5 ± 0.8 | prevented much of the NMDA induced damage | preserved the number of RGCs | effectively blocked | – | up to 120 min | significantly reduced IOP | Time for which significant IOP reduction was maintained ([1]; 0.1% topical): up to 120 min; Effect on IOP at 30 min ([1]; 0.1% topical): significantly reduced IOP; Duration of IOP lowering action ([1]; topical): longest duration of action
4 | Cc1c(C(=O)c2cccc3ccccc23)c2cccc3c2n1[C@H](CN1CCOCC1)CO3 [WIN 55-212-2, reference compound] | 83.1 ± 5.5 % of Baseline | – | 58.3 ± 5.6 % of Baseline | effective | 48.8 ± 2.8 | – | – | – | non-toxic | up to 120 min | significantly reduced IOP | Effect on IOP compared to vehicle or baseline ([1]; 0.1% topical): not significantly different from either vehicle or baseline; Effect on IOP at 60 min ([1]; 1.0% topical, 60 min): significantly reduced; Corneal thickness [6]: remained unchanged
